The text below walks through data of ChEMBL document CHEMBL1287729, “Novel and efficient synthesis and antifungal evaluation of 2,3-functionalized cholestane and androstane derivatives” (2010).

Values after ≈ are worked out from the molar mass of the structure shown. Active and inactive are the calls of the source. The rule behind the calls is not given here.

In test [1] the test system is Cryptococcus neoformans. As to the kind of experiment: Antifungal activity against Cryptococcus neoformans ATCC 36556 after 48 hrs by broth dilution method. The class given is functional. The conditions noted are these: ATCC 36556, 48 h. (Broth dilution looks for growth in wells or tubes with falling amounts of substance.)
Test [2] concerns Aspergillus fumigatus. As to the kind of experiment: Antifungal activity against Aspergillus fumigatus ATCC 16424 after 48 hrs by broth dilution method. As to conditions: ATCC 16424, 48 h. The class given is functional.
Test [3] relates to Aspergillus fumigatus. As to the kind of experiment: Antifungal activity against Aspergillus fumigatus ATCC 16424 at 128-0.01 ug/ml by spectroscopy analysis. In kind it is functional, organism-based.
Test [4] deals with Nakaseomyces glabratus. As to the kind of experiment: Antifungal activity against Candida glabrata ATCC 48435 at 128-0.01ug/ml spectroscopy analysis. In kind it is functional, organism-based.
Test [5] relates to Cryptococcus neoformans. As to the kind of experiment: Antifungal activity against Cryptococcus neoformans ATCC 36556 at128-0.01 ug/ml spectroscopy analysis. The class given is functional, organism-based.
Test [6] has as its system Candida albicans. As to the kind of experiment: Antifungal activity against Candida albicans ATCC 10231 at 128-0.01 ug/ml spectroscopy analysis. The class given is functional, organism-based.
Test [7] has as its system Candida albicans. Briefly: Antifungal activity against Candida albicans ATCC 10231 after 48 hrs by broth dilution method. In kind it is functional. As to conditions: ATCC 10231, 48 h.
The subject of test [8] is Nakaseomyces glabratus. As to the kind of experiment: Antifungal activity against Candida glabrata ATCC 48435 after 48 hrs by broth dilution method. The class given is functional. The conditions noted are these: ATCC 48435, 48 h.

In general, MIC refers to the lowest concentration that inhibits growth of the organism. As for `CC(C)CCC[C@@H](C)[C@H]1CC[C@H]2[C@@H]3CC[C@H]4C[C@@H](O)[C@H](O)C[C@]4(C)[C@H]3CC[C@]12C`, in the test on Cryptococcus neoformans [1], it took 32 µg/mL (≈ 79.1 µM) to inhibit growth (MIC).
On to `CC(=O)O[C@]12C[C@@H]3CC[C@@H]4[C@H](CC[C@]5(C)[C@@H]([C@H](C)CCCC(C)C)CC[C@@H]45)[C@@]3(C)C[C@H]1O2`, for which 8 µg/mL (≈ 18 µM) was the least that counted as inhibitory with Aspergillus fumigatus [2] (MIC).
Regarding `C[C@@]12CCC[C@H]1[C@@H]1CC[C@H]3C[C@@H](O)CC[C@]3(C)[C@H]1CC2`, the “growth inhibition (GI)” value in the test with Aspergillus fumigatus [3], with Nakaseomyces glabratus [4], in the test with Cryptococcus neoformans [5] and in the test with Candida albicans [6] was “Active” each time.
Regarding `CC(=O)O[C@@H]1C[C@@]2(C)[C@@H](CC[C@@H]3[C@@H]2CC[C@]2(C)[C@@H]([C@H](C)CCCC(C)C)CC[C@@H]32)C[C@H]1OC(=O)CCC(=O)O`, the MIC in the test with Cryptococcus neoformans [1] amounted to 8 µg/mL (≈ 14.6 µM); in the test on Aspergillus fumigatus [2] (read-out: MIC) it was 2 µg/mL (≈ 3.66 µM).
Regarding `CC(=O)O[C@]12C[C@@H]3CC[C@H]4[C@@H]5CCC[C@@]5(C)CC[C@@H]4[C@@]3(C)C[C@H]1O2`, the minimal inhibitory concentration (MIC) against Candida albicans [7] came to 4 µg/mL (≈ 12 µM).
`CC(C)CCC[C@@H](C)[C@H]1CC[C@H]2[C@@H]3CC[C@H]4C[C@@H](O)CC[C@]4(C)[C@H]3CC[C@]12C`: the “growth inhibition (GI)” value with Aspergillus fumigatus [3], with Nakaseomyces glabratus [4], in the test with Cryptococcus neoformans [5] and in the test with Candida albicans [6] was “Active” throughout.
In the case of `CC(C)CCC[C@@H](C)[C@H]1CC[C@H]2[C@@H]3CC[C@H]4C[C@@H](OC(=O)CCC(=O)O)[C@H](OC(=O)CCC(=O)O)C[C@]4(C)[C@H]3CC[C@]12C`, the “growth inhibition (GI)” value in the test on Aspergillus fumigatus [3] was “Active”. The values for the MIC in the test on Nakaseomyces glabratus [8] and with Aspergillus fumigatus [2] (read-out: MIC) were 32 µg/mL (≈ 52.9 µM) and 8 µg/mL (≈ 13.2 µM), respectively.
`CC(=O)O[C@@H]1C[C@@]2(C)[C@@H](CC[C@H]3[C@@H]4CCC[C@@]4(C)CC[C@@H]32)CC1=O`: the MIC against Candida albicans [7] worked out at 0.125 µg/mL (≈ 0.376 µM); in the test on Aspergillus fumigatus [2] (read-out: MIC), 1 µg/mL (≈ 3.01 µM).
Consider `CC(=O)O[C@@H]1C[C@@]2(C)[C@@H](CC[C@@H]3[C@@H]2CC[C@]2(C)[C@@H]([C@H](C)CCCC(C)C)CC[C@@H]32)C[C@H]1O`, for which it took 4 µg/mL (≈ 8.95 µM) to inhibit growth with Cryptococcus neoformans [1] (MIC).
In the test on Aspergillus fumigatus [2], `CC(=O)O[C@@H]1C[C@@]2(C)[C@@H](CC[C@@H]3[C@@H]2CC[C@]2(C)[C@@H]([C@H](C)CCCC(C)C)CC[C@@H]32)CC1=O` had an MIC of 128 µg/mL (≈ 288 µM). For the same molecule, in the test on Candida albicans [6], the “growth inhibition (GI)” value was “Active”.
